For assay [1], the target named is T1, GIPR (Homo sapiens, UniProt P48546, D191A/Q138A/R196A).
T1 sequence (P48546 22-466 Q138A/D191A/R196A): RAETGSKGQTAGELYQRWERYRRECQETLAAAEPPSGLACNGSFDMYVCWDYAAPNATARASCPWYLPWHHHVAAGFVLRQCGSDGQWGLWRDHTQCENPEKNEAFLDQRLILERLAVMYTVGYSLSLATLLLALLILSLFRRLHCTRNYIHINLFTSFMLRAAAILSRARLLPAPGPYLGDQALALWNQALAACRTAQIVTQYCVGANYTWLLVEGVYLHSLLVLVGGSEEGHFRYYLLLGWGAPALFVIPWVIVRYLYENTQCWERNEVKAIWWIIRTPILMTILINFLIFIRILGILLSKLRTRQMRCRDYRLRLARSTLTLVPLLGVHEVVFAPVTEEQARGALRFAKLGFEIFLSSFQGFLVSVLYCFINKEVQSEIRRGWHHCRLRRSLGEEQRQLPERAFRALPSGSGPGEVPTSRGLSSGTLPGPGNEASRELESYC
Description: cAMP accumulation assay (LANCE Ultra cAMP kit), GIPR WT, mutant or modified constructs. The conditions noted are these: GIPR Q138A/D191A/R196A, HEK293T. The assay is classed as cell-based. Also noted: acylated tirzepatide to the full-length or modified; Flag; expressed in transfected cells; host or cells: HEK293T. The procedure, abridged: (§1)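 HEK293T cells transiently transfected with human GIPR WT or mutant constructs (pcDNA3.1), used after 24 h. The cells were stimulated with peptide agonists for 40 min at RT in HBSS with 5 mM HEPES, 0.1% BSA or casein, and 0.5 mM IBMX. cAMP was read by LANCE Ultra TR-FRET (Eu-cAMP tracer/ULight anti-cAMP, 1 h RT, 620/650 nm).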
Background: Cyclic AMP is a second messenger, typically raised through Gs and lowered through Gi signalling.

Assay [2] addresses T2, GIPR (Homo sapiens, UniProt P48546, Q30A).
T2 sequence (P48546 22-466 Q30A): T1 sequence (P48546 22-466 Q138A/D191A/R196A) with Q9A, A117Q, A170D, A175R
The assay is described as above. The assay is classed as cell-based. The note with it: GIPR Q30A, HEK293T. Also noted: acylated tirzepatide to the full-length or modified; Flag; expressed in transfected cells; host or cells: HEK293T. The procedure, abridged:
as §1

The target in assay [3] is T3, GLP-1R (Homo sapiens, UniProt P43220, R190A).
T3 construct: Flag; expressed in transfected cells; host or cells: HEK293T
Description: cAMP accumulation assay, GLP-1R WT, mutant or modified constructs. It counts as cell-based. The conditions noted are these: HEK-293T, GLP-1R R190A; HEK293T. As to the method: (§2) Human embryonic kidney 293 cells containing SV40 large T-antigen (HEK293T) were cultured in DMEM (Gibco) supplemented with 10% (v/v) fetal bovine serum (FBS, Gibco), 1 mM sodium pyruvate (Gibco) and 100 units/mL penicillin and 100 μg/mL streptomycin at 37 °C in 5% CO2. Chinese hamster ovary (CHO-K1) cells were cultured in F-12 (Gibco) containing 10% FBS, 100 units/mL penicillin and 100 μg/mL streptomycin at 37 °C in 5% CO2. For cAMP and receptor expression assays, HEK293T cells were seeded into 6-well cell culture plates at a density of 7 × 10^5 cells per well. After overnight incubation, cells were transfected with GIPR, GLP-1R or GCGR construct using Lipofectamine 2000 or Lipofectamine 3000 transfection reagent (Invitrogen). For whole-cell binding assay, CHO-K1 cells were seeded into 96-well fibronectin-treated cell culture plates at a density of 3 × 10^4 cells per well. After overnight incubation, cells were transfected with GIPR, GLP-1R or GCGR construct using Lipofectamine 2000 transfection reagent (Invitrogen). Following 24 h culturing, the transfected cells were ready for use. […]
(§3) For GIPR, GLP-1R and GCGR, multi-targeting agonist stimulated cAMP accumulation was measured by a LANCE Ultra cAMP kit (PerkinElmer). […] Plates were incubated at RT for 1 h and the fluorescence intensity measured at 620 nm and […] by an EnVision multilabel plate reader (PerkinElmer).

Assay [4] concerns the target T4, GLP-1R (Homo sapiens, UniProt P43220, K197A).
T4 construct: Flag; expressed in transfected cells; host or cells: HEK293T
The description is as above. The assay is classed as cell-based. The conditions noted are these: HEK-293T, GLP-1R K197A; HEK293T. The method, then: as §2, §3

For assay [5] the following is noted: clinical trial outcome; Drugs@FDA, ChemBL, ClinicalTrials.gov; cited from earlier work.
[6] abbreviates: read-out: cAMP pEC50 (converted).

Consider two compounds from publication PMC8881610 (Nature Communications, 2022).

Structures are written as SMILES. Substitutions are numbered along the chain they refer to.

A word on the Emax: it is the greatest response seen or fitted, relative to the assay's reference.

T3 sequence (P43220 24-463 R190A): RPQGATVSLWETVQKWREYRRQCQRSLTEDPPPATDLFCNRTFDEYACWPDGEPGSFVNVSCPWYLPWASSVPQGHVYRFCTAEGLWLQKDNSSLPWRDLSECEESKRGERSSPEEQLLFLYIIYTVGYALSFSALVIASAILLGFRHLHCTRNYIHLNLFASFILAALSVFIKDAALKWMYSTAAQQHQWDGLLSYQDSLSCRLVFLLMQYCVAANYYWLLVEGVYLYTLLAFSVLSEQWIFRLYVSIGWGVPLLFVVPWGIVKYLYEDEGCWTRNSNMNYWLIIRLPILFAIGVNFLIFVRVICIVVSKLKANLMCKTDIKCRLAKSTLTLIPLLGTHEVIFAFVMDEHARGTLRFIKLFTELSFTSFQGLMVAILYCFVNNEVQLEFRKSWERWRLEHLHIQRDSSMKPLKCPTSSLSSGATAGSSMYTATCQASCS
T4 sequence (P43220 24-463 K197A): as the sequence (P43220 24-463 R190A) above, with A167R, K174A counted along it

As to `CCCCCCCCCCCCCCCC(=O)N[C@@H](CCC(=O)NCCCC[C@H](NC(=O)[C@H](CC(=O)O)NC(=O)[C@H](CO)NC(=O)[C@@H](NC(=O)[C@H](Cc1ccccc1)NC(=O)[C@@H](NC(=O)CNC(=O)[C@H](CCC(N)=O)NC(=O)C(C)(C)NC(=O)[C@@H](N)Cc1c[nH]cn1)[C@@H](C)O)[C@@H](C)O)C(=O)N[C@@H](CO)C(=O)N[C@@H](CCCCN)C(=O)N[C@@H](Cc1ccc(O)cc1)C(=O)N[C@@H](CC(C)C)C(=O)N[C@@H](CC(=O)O)C(=O)N[C@@H](CCC(=O)O)C(=O)N[C@@H](CCCNC(=N)N)C(=O)N[C@@H](C)C(=O)N[C@@H](C)C(=O)N[C@@H](CCC(N)=O)C(=O)N[C@@H](CC(=O)O)C(=O)N[C@@H](Cc1ccccc1)C(=O)N[C@H](C(=O)N[C@@H](CCC(N)=O)C(=O)N[C@@H](Cc1c[nH]c2ccccc12)C(=O)N[C@@H](CC(C)C)C(=O)N[C@@H](CC(C)C)C(=O)N[C@@H](CC(=O)O)C(=O)NCC(=O)NCC(=O)N1CCC[C@H]1C(=O)N[C@@H](CO)C(=O)N[C@@H](CO)C(=O)NCC(=O)N[C@@H](C)C(=O)N1CCC[C@H]1C(=O)N1CCC[C@H]1C(=O)N1CCC[C@H]1C(=O)N[C@@H](CO)C(N)=O)C(C)C)C(=O)O` [Peptide 20], the EC50 at GIPR [1] (setting [6]) was 30.2 nM; on GIPR [2] (setting [6]), 0.0427 nM. In addition, the figures for the Emax at GIPR [1] (HEK-293T) and at GIPR [2] (HEK-293T) were 56.3 ± 12.2% and 100 ± 1.79%, respectively.
`CC[C@H](C)[C@H](NC(=O)[C@H](CC(C)C)NC(=O)[C@H](Cc1c[nH]c2ccccc12)NC(=O)[C@H](CCC(N)=O)NC(=O)[C@@H](NC(=O)[C@H](Cc1ccccc1)NC(=O)[C@H](C)NC(=O)[C@H](CCCCNC(=O)COCCOCCNC(=O)COCCOCCNC(=O)CC[C@H](NC(=O)CCCCCCCCCCCCCCCCCCC(=O)O)C(=O)O)NC(=O)[C@H](CCC(N)=O)NC(=O)[C@H](C)NC(=O)[C@@H](NC(=O)[C@H](CCCCN)NC(=O)[C@H](CC(=O)O)NC(=O)[C@H](CC(C)C)NC(=O)C(C)(C)NC(=O)[C@@H](NC(=O)[C@H](CO)NC(=O)[C@H](Cc1ccc(O)cc1)NC(=O)[C@H](CC(=O)O)NC(=O)[C@H](CO)NC(=O)[C@@H](NC(=O)[C@H](Cc1ccccc1)NC(=O)[C@@H](NC(=O)CNC(=O)[C@H](CCC(=O)O)NC(=O)C(C)(C)NC(=O)[C@@H](N)Cc1ccc(O)cc1)[C@@H](C)O)[C@@H](C)O)[C@@H](C)CC)[C@@H](C)CC)C(C)C)C(=O)N[C@@H](C)C(=O)NCC(=O)NCC(=O)N1CCC[C@H]1C(=O)N[C@@H](CO)C(=O)N[C@@H](CO)C(=O)NCC(=O)N[C@@H](C)C(=O)N1CCC[C@H]1C(=O)N1CCC[C@H]1C(=O)N1CCC[C@H]1C(=O)N[C@@H](CO)C(N)=O` [Tirzepatide]: the Emax on GLP-1R [3] amounted to 102 ± 2.41%. On GLP-1R [4], this compound returned a maximal response (Emax) of 111 ± 2.77%. For the same compound, in assay [5], the Body weight is on record as -5.30 ~ -5.70 kg or % and the Fasting plasma glucose is on record as -60.70 ~ -74.20 mg/dL.
